Results: patent US11786519B2, “Apoptosis-inducing agents for the treatment of cancer and immune and autoimmune diseases” (AbbVie Inc., priority 2011, dated 2023)

Target: Bcl-xL (Homo sapiens, UniProt Q07817)
Assay: TR-FRET binding assay, competition with F-Bak for Bcl-xL
Settings: competition with F-Bak probe, GST-Bcl-xL
Method: Determination of the utility of compounds having Formula (I) as binders to and inhibitors of anti-apoptotic Bcl-xL proteins was performed using the Time Resolved-Fluorescence Resonance Energy Transfer (TR-FRET) Assay. Tb-anti-GST antibody was purchased from Invitrogen (Catalog No. PV4216).
The measurement of competition of compounds of the invention with F-Bak for a Bcl-2 family protein (Bcl-xL) binding site using a Time Resolved Fluorescence Resonance Energy Transfer (TR-FRET) binding assay:
Test compounds were serially diluted in DMSO starting at 50 µM (2× starting concentration; 10% DMSO) and 10 μL transferred into a 384-well plate.
The samples are then mixed on a shaker for 1 minute then incubated for an additional 2 hours at room temperature. For each assay plate, a probe/antibody and protein/antibody/probe mixture were included as a negative and a positive control, respectively. Fluorescence was measured on the ENVISION plate reader (Perkin Elmer) using a 340/35 nm excitation filter and 520/525 (F-Bak) and 495/510 nm ([…]) emission filters. Dissociation constants (Ki) were determined using Wang's equation (Wang, Z. X. An exact mathematical expression for describing competitive binding of two different ligands to a protein molecule. FEBS Lett. 1995 360:111-114). The TR-FRET assay can be performed in the presence of varying concentrations of human serum (HS) or fetal bovine serum (FBS).

Chain of Bcl-xL (Q07817 whole entry): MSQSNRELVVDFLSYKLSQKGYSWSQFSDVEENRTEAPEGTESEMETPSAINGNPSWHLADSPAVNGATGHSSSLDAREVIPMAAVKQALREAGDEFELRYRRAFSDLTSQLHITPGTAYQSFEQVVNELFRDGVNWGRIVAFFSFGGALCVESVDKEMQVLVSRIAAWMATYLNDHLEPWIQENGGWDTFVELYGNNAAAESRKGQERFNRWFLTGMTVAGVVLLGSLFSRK

**Q.** How did the Ki turn out when `O=C(Nc1nc2ccccc2s1)c1cccc2c1CN(c1ccc(-c3cnn(CC45CC6CC(C4)CC(N4CCOCC4)(C6)C5)c3)c(C(=O)O)n1)CC2` [Example 15, 6-[8-(1,3-benzothiazol-2-ylcarbamoyl)-3,4-dihydroisoquinolin-2(1H)-yl]-3-(1-{[3-(morpholin-4-yl)tricyclo[3.3.1.1^3,7]dec-1-yl]methyl}-1H-pyrazol-4-yl)pyridine-2-carboxylic acid] was run?
**A.** < 100 pM

**Q.** For `Cc1c(OCC23CC4CC(CC(C4)C2)C3)cccc1-c1ccc(N2CCc3cccc(C(=O)Nc4nc5ccccc5s4)c3C2)nc1C(=O)O` [Example 21, 6-[8-(1,3-benzothiazol-2-ylcarbamoyl)-3,4-dihydroisoquinolin-2(1H)-yl]-3-{2-methyl-3-[tricyclo[3.3.1.1^3,7]dec-1-ylmethoxy]phenyl}pyridine-2-carboxylic acid], which Ki is on record?
**A.** 600 pM

**Q.** For `Cc1c(-c2ccc(N3CCc4cccc(C(=O)Nc5nc6ccccc6s5)c4C3)nc2C(=O)O)ccnc1OCC12CC3CC(CC(C3)C1)C2` [Example 27, 6-[8-(1,3-benzothiazol-2-ylcarbamoyl)-3,4-dihydroisoquinolin-2(1H)-yl]-3′-methyl-2′-(tricyclo[3.3.1.1^3,7]dec-1-ylmethoxy)-3,4′-bipyridine-2-carboxylic acid], which Ki is on record?
**A.** 100 pM

**Q.** With `Cc1c(-c2ccc(N3CCc4cccc(C(=O)Nc5nc6ncccc6s5)c4C3)nc2C(=O)O)cnn1CC12CC3CC(CC(C3)C1)C2` [Example 30, 3-[5-methyl-1-(tricyclo[3.3.1.1^3,7]dec-1-ylmethyl)-1H-pyrazol-4-yl]-6-[8-([1,3]thiazolo[4,5-b]pyridin-2-ylcarbamoyl)-3,4-dihydroisoquinolin-2(1H)-yl]pyridine-2-carboxylic acid] as the compound, how does the Ki read?
**A.** < 100 pM

**Q.** Which Ki does the source give for `Cc1c(-c2ccc(N3CCc4cccc(C(=O)Nc5nc6ccccc6s5)c4C3)nc2C(=O)O)cc(C#N)n1CCC12CC3CC(CC(C3)C1)C2` [Example 34, 6-[8-(1,3-benzothiazol-2-ylcarbamoyl)-3,4-dihydroisoquinolin-2(1H)-yl]-3-{5-cyano-2-methyl-1-[2-(tricyclo[3.3.1.1^3,7]dec-1-yl)ethyl]-1H-pyrrol-3-yl}pyridine-2-carboxylic acid] here?
**A.** 400 pM

**Q.** For `COC12CC3(C)CC(C)(CC(Cn4ncc(-c5ccc(N6CCc7cccc(C(=O)Nc8nc9ccccc9s8)c7C6)nc5C(=O)O)c4C)(C3)C1)C2` [Example 38, 6-[8-(1,3-benzothiazol-2-ylcarbamoyl)-3,4-dihydroisoquinolin-2(1H)-yl]-3-(1-{[3-methoxy-5,7-dimethyltricyclo[3.3.1.1^3,7]dec-1-yl]methyl}-5-methyl-1H-pyrazol-4-yl)pyridine-2-carboxylic acid], which Ki is on record?
**A.** < 100 pM

**Q.** Which Ki does the source give for `COC12CC3CC(CC(Cn4ncc(-c5ccc(N6CCc7cccc(C(=O)Nc8nc9ccccc9s8)c7C6)nc5C(=O)NS(=O)(=O)N5CCOCC5)c4C)(C3)C1)C2` [Example 39, N-(1,3-benzothiazol-2-yl)-2-{5-(1-{[3-methoxytricyclo[3.3.1.1^3,7]dec-1-yl]methyl}-5-methyl-1H-pyrazol-4-yl)-6-[(morpholin-4-ylsulfonyl)carbamoyl]pyridin-2-yl}-1,2,3,4-tetrahydroisoquinoline-8-carboxamide] here?
**A.** 12000 pM

**Q.** For `COC12CC3CC(CC(Cn4ncc(-c5ccc(N6CCc7cccc(C(=O)Nc8nc9ccccc9s8)c7C6)nc5C(=O)NS(=O)(=O)C5CC5)c4C)(C3)C1)C2` [Example 41, N-(1,3-benzothiazol-2-yl)-2-{6-[(cyclopropylsulfonyl)carbamoyl]-5-(1-{[3-methoxytricyclo[3.3.1.1^3,7]dec-1-yl]methyl}-5-methyl-1H-pyrazol-4-yl)pyridin-2-yl}-1,2,3,4-tetrahydroisoquinoline-8-carboxamide], which Ki is on record?
**A.** < 100 pM

**Q.** Which Ki does the source give for `O=C(Nc1nc2ccccc2s1)c1cccc2c1CN(c1ccc(-c3cnn(CC45CC6CC(CC(C6)C4)C5)c3Cl)c(C(=O)O)n1)CC2` [Example 42, 6-[8-(1,3-benzothiazol-2-ylcarbamoyl)-3,4-dihydroisoquinolin-2(1H)-yl]-3-{5-chloro-1-[tricyclo[3.3.1.1^3,7]dec-1-ylmethyl]-1H-pyrazol-4-yl}pyridine-2-carboxylic acid] here?
**A.** 300 pM

**Q.** For `N#Cc1c(NC23CC4CC(CC(C4)C2)C3)cccc1-c1ccc(N2CCc3cccc(C(=O)Nc4nc5ccccc5s4)c3C2)nc1C(=O)O` [Example 47, 6-[8-(1,3-benzothiazol-2-ylcarbamoyl)-3,4-dihydroisoquinolin-2(1H)-yl]-3-{2-cyano-3-[tricyclo[3.3.1.1^3,7]dec-1-ylamino]phenyl}pyridine-2-carboxylic acid], which Ki is on record?
**A.** 200 pM

**Q.** `Cc1c(NC(=O)C23CC4CC(CC(C4)C2)C3)cccc1-c1ccc(N2CCc3cccc(C(=O)Nc4nc5ccccc5s4)c3C2)nc1C(=O)O` [Example 50, 6-[8-(1,3-benzothiazol-2-ylcarbamoyl)-3,4-dihydroisoquinolin-2(1H)-yl]-3-(2-methyl-3-{[tricyclo[3.3.1.1^3,7]dec-1-ylcarbonyl]amino}phenyl)pyridine-2-carboxylic acid] was tested. Which Ki did it give?
**A.** 9000 pM

**Q.** For `Cc1c(-c2ccc(N3CCc4cccc(C(=O)Nc5nc6ccccc6s5)c4C3)nc2C(=O)O)cccc1S(=O)(=O)NC12CC3CC(CC(C3)C1)C2` [Example 51, 6-[8-(1,3-benzothiazol-2-ylcarbamoyl)-3,4-dihydroisoquinolin-2(1H)-yl]-3-{2-methyl-3-[tricyclo[3.3.1.1^3,7]dec-1-ylsulfamoyl]phenyl}pyridine-2-carboxylic acid], which Ki is on record?
**A.** 300 pM

**Q.** `Cc1c(-c2ccc(N3CCc4cccc(C(=O)Nc5nc6ccccc6s5)c4C3)nc2C(=O)O)cccc1N(C)CC12CC3CC(CC(C3)C1)C2` [Example 55, 6-[8-(1,3-benzothiazol-2-ylcarbamoyl)-3,4-dihydroisoquinolin-2(1H)-yl]-3-(2-methyl-3-{methyl[tricyclo[3.3.1.1^3,7]dec-1-ylmethyl]amino}phenyl)pyridine-2-carboxylic acid] was tested. Which Ki did it give?
**A.** 400 pM

**Q.** With `COCCC1(Cn2cc(-c3ccc(N4CCc5cccc(C(=O)Nc6nc7ccccc7s6)c5C4)nc3C(=O)O)cn2)C2CC3CC(C2)CC1C3` (stereo not shown) [Example 56, 6-[8-(1,3-benzothiazol-2-ylcarbamoyl)-3,4-dihydroisoquinolin-2(1H)-yl]-3-(1-{[2-(2-methoxyethyl)tricyclo[3.3.1.1^3,7]dec-2-yl]methyl}-1H-pyrazol-4-yl)pyridine-2-carboxylic acid] as the compound, how does the Ki read?
**A.** < 100 pM

**Q.** For `Cc1c(-c2ccc(N3CCc4cccc(C(=O)Nc5nc6ccccc6s5)c4C3)nc2C(=O)O)nnn1CC12CC3CC(CC(C3)C1)C2` [Example 57, 6-[8-(1,3-benzothiazol-2-ylcarbamoyl)-3,4-dihydroisoquinolin-2(1H)-yl]-3-[5-methyl-1-(tricyclo[3.3.1.1^3,7]dec-1-ylmethyl)-1H-1,2,3-triazol-4-yl]pyridine-2-carboxylic acid], which Ki is on record?
**A.** < 100 pM

**Q.** How did the Ki turn out when `COC12CC3CC(CC(Cn4c(C#N)cc(-c5ccc(N6CCc7cccc(C(=O)Nc8nc9ccccc9s8)c7C6)nc5C(=O)O)c4C)(C3)C1)C2` [Example 58, 6-[8-(1,3-benzothiazol-2-ylcarbamoyl)-3,4-dihydroisoquinolin-2(1H)-yl]-3-(5-cyano-1-{[3-methoxytricyclo[3.3.1.1^3,7]dec-1-yl]methyl}-2-methyl-1H-pyrrol-3-yl)pyridine-2-carboxylic acid] was run?
**A.** < 100 pM
